Data reported in ChEMBL document CHEMBL4627264, “Synthesis and evaluation of novel radioiodinated PSMA targeting ligands for potential radiotherapy of prostate cancer” (Bioorg Med Chem, 2020).
Activity calls are given as the source filed them. The rule behind the calls is not given here.

Tests used:
[1] = molecular target: T1, Glutamate carboxypeptidase 2 (Homo sapiens, UniProt Q04609); assay: Binding affinity to PSMA in human PC3-PIP cells assessed as drug uptake per 10^6 cells at 0.2 nM incubated for 1 hr followed by compound washout measured using 125I-labelled compound by gamma counter analysis; format: ADME, cell-based; settings: 0.0002 µM
Target sequence in this assay (Q04609 whole entry): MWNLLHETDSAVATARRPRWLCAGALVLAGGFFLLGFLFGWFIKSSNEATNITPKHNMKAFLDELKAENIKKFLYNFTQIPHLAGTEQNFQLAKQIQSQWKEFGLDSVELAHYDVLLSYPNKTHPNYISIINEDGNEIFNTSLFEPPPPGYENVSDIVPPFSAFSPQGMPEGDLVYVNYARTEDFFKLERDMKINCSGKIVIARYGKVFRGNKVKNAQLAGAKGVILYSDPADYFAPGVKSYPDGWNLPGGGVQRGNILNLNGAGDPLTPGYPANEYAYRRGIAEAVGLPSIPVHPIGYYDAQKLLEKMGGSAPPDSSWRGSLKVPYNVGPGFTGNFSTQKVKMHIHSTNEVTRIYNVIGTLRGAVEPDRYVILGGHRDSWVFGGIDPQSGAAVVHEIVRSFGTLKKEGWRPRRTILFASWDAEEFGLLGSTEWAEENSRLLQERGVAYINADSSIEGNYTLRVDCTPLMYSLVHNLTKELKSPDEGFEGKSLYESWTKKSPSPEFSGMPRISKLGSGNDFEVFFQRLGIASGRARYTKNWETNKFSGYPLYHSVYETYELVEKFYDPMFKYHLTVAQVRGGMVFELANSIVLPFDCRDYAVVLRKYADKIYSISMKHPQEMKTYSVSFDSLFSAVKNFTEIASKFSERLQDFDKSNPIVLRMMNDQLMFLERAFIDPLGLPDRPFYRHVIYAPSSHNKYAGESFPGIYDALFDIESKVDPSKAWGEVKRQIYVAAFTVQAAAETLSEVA

[2] = molecular target: T1, Glutamate carboxypeptidase 2; assay: Binding affinity to PSMA in human PC3-PIP cells assessed as drug uptake per 10^6 cells at 0.2 nM incubated for 2 hrs followed by compound washout measured using 125I-labelled compound by gamma counter analysis; format: ADME, cell-based; settings: 0.0002 µM
Target sequence in this assay (Q04609 whole entry): as above

[3] = Drug internalization in human PC3-PIP cells at 0.2 nM incubated for 1 hr followed by compound washout measured using 125I-labelled compound by gamma counter analysis; format: ADME, cell-based; settings: 0.0002 µM
[4] = Drug internalization in human PC3-PIP cells at 0.2 nM incubated for 2 hrs followed by compound washout measured using 125I-labelled compound by gamma counter analysis; format: ADME, cell-based; settings: 0.0002 µM
[5] = Drug uptake in tumor of CD-1 nude mouse xenografted with PC3-PIP cells at 6 nM to 9 nM, iv measured at 4 hrs using 125I-labelled compound by gamma counter analysis; format: ADME, organism-based, Neoplasm; settings: in vivo, 0.006 µM
[6] = Drug uptake in kidney of CD-1 nude mouse xenografted with PC3-PIP cells at 6 nM to 9 nM, iv measured at 1 hr using 125I-labelled compound by gamma counter analysis; format: ADME, organism-based; settings: in vivo, 0.006 µM
[7] = Drug uptake in tumor of CD-1 nude mouse xenografted with PC3-PIP cells at 6 nM to 9 nM, iv measured at 1 hr using 125I-labelled compound by gamma counter analysis; format: ADME, organism-based, Neoplasm; settings: in vivo, 0.006 µM
[8] = Drug uptake in kidney of CD-1 nude mouse xenografted with PC3-PIP cells at 6 nM to 9 nM, iv measured at 4 hrs using 125I-labelled compound by gamma counter analysis; format: ADME, organism-based; settings: in vivo, 0.006 µM
[9] = Clearance in tumor of CD-1 nude mouse xenografted with PC3-PIP cells at 6 nM to 9 nM, iv measured at 4 hrs using 125I-labelled compound by gamma counter analysis; format: ADME, organism-based, Neoplasm; settings: in vivo, 0.006 µM
[10] = Drug uptake in spleen of CD-1 nude mouse xenografted with PC3-PIP cells at 6 nM to 9 nM, iv measured at 4 hrs using 125I-labelled compound by gamma counter analysis; format: ADME, organism-based; settings: in vivo, 0.006 µM
[11] = Drug uptake in human PC3-PIP cells at 0.2 nM incubated prior to compound washout measured using 125I-labelled compound by gamma counter analysis; format: ADME, cell-based; settings: 0.0002 µM, TDE = time-dependent effect
[12] = Drug uptake in kidney of CD-1 nude mouse xenografted with PC3-PIP cells at 6 nM to 9 nM, iv measured after 2 mins to 1440 mins using 125I-labelled compound by gamma counter analysis; format: ADME, organism-based; settings: in vivo, 0.006 µM
[13] = Drug uptake in human PC3-PIP cells at 0.2 nM incubated for 1 hr in presence of PSMA inhibitor PSMA-617 measured using 125I-labelled compound by gamma counter analysis; format: ADME, cell-based; settings: 0.0002 µM
[14] = molecular target: T1, Glutamate carboxypeptidase 2; assay: Inhibition of […] binding to PSMA in human PC3-PIP cells at 0.2 nM incubated for 1 hr; format: cell-based
Target sequence in this assay (Q04609 whole entry, looked up): as the sequence (Q04609 whole entry) above

[15] = Drug uptake in liver of CD-1 nude mouse xenografted with PC3-PIP cells at 6 nM to 9 nM, iv measured at 1 hr using 125I-labelled compound by gamma counter analysis; format: ADME, organism-based; settings: in vivo, 0.006 µM
[16] = Drug uptake in liver of CD-1 nude mouse xenografted with PC3-PIP cells at 6 nM to 9 nM, iv measured at 4 hrs using 125I-labelled compound by gamma counter analysis; format: ADME, organism-based; settings: in vivo, 0.006 µM
[17] = Drug uptake in liver of CD-1 nude mouse xenografted with PC3-PIP cells at 6 nM to 9 nM, iv measured at 24 hrs using 125I-labelled compound by gamma counter analysis; format: ADME, organism-based; settings: in vivo, 0.006 µM
[18] = Drug uptake in liver of CD-1 nude mouse xenografted with PC3-PIP cells at 6 nM to 9 nM, iv measured at 2 mins using 125I-labelled compound by gamma counter analysis; format: ADME, organism-based; settings: in vivo, 0.006 µM
[19] = Drug uptake in large intestine of CD-1 nude mouse xenografted with PC3-PIP cells at 6 nM to 9 nM, iv measured at 1 hr using 125I-labelled compound by gamma counter analysis; format: ADME, organism-based; settings: in vivo, 0.006 µM
[20] = Drug uptake in large intestine of CD-1 nude mouse xenografted with PC3-PIP cells at 6 nM to 9 nM, iv measured at 4 hrs using 125I-labelled compound by gamma counter analysis; format: ADME, organism-based; settings: in vivo, 0.006 µM
[21] = molecular target: T1, Glutamate carboxypeptidase 2; assay: Displacement of [125I]MIP-1095 from PSMA in human PC3-PIP cells after 1 hr by gamma counter analysis; format: cell-based
Target sequence in this assay (Q04609 whole entry): as above

[22] = Drug uptake in tumor of CD-1 nude mouse xenografted with PC3-PIP cells at 6 nM to 9 nM, iv measured at 24 hrs using 125I-labelled compound by gamma counter analysis; format: ADME, organism-based, Neoplasm; settings: in vivo, 0.006 µM
[23] = Uptake in kidney of CD-1 nude mouse xenografted with PC3-PIP cells at 6 nM to 9 nM, iv measured at 1 hr using 125I-labelled compound by gamma counter analysis; settings: in vivo, 0.006 µM
[24] = Uptake in kidney of CD-1 nude mouse xenografted with PC3-PIP cells at 6 nM to 9 nM, iv measured at 4 hrs using 125I-labelled compound by gamma counter analysis; settings: in vivo, 0.006 µM
[25] = Uptake in kidney of CD-1 nude mouse xenografted with PC3-PIP cells at 6 nM to 9 nM, iv measured at 24 hrs using 125I-labelled compound by gamma counter analysis; settings: in vivo, 0.006 µM
[26] = Drug uptake in kidney of CD-1 nude mouse xenografted with PC3-PIP cells at 6 nM to 9 nM, iv measured at 24 hrs using 125I-labelled compound by gamma counter analysis; format: ADME, organism-based; settings: in vivo, 0.006 µM
[27] = Drug uptake in small intestine of CD-1 nude mouse xenografted with PC3-PIP cells at 6 nM to 9 nM, iv measured at 1 hr using 125I-labelled compound by gamma counter analysis; format: ADME, organism-based; settings: in vivo, 0.006 µM

Row | Drug uptake [1] | Drug uptake [2] | Drug uptake [3] | Drug uptake [4] | Drug uptake [11] | Drug uptake [12] | Drug uptake [13] | inhibition [14] | SMILES | also measured
1 | 49 %ID | 76 %ID | 58% | 60% | Tde | Active | Not Active | – | O=C(O)CC[C@H](NC(=O)N[C@@H](CCCCNC(=O)[C@H](Cc1ccccc1)NC(=O)COc1ccc(C[C@H](NC(=O)[C@H](CCC(=O)O)NC(=O)c2ccc([125I])cc2)C(=O)O)cc1)C(=O)O)C(=O)O | Drug uptake [5]: 14.3 % ID/g; Drug uptake [6]: 174.6 % ID/g; Drug uptake [7]: 26.2 % ID/g; Drug uptake [8]: 114.7 % ID/g; CL [9]: 45%; Drug uptake [10]: 15.4 % ID/g
2 | – | – | – | – | – | – | – | Active | O=C(O)CC[C@H](NC(=O)N[C@@H](CCCCNC(=O)[C@H](Cc1ccccc1)NC(=O)COc1ccc(C[C@H](NC(=O)[C@H](CCC(=O)O)NC(=O)c2ccc(I)cc2)C(=O)O)cc1)C(=O)O)C(=O)O | –
3 | 36 %ID | 52 %ID | 51% | 55% | Tde | Not Active | Not Active | – | O=C(O)CC[C@H](NC(=O)N[C@@H](CCCCNC(=O)[C@H](Cc1ccccc1)NC(=O)COc1ccc(C[C@H](NC(=O)CNC(=O)c2ccc([125I])cc2)C(=O)O)cc1)C(=O)O)C(=O)O | Drug uptake [18]: 29.4 % ID/g; Drug uptake [19]: 21.6 % ID/g; Drug uptake [20]: 9.98 % ID/g
4 | – | – | – | – | – | – | – | Active | O=C(O)CC[C@H](NC(=O)N[C@@H](CCCCNC(=O)[C@H](Cc1ccccc1)NC(=O)COc1ccc(C[C@H](NC(=O)CNC(=O)c2ccc(I)cc2)C(=O)O)cc1)C(=O)O)C(=O)O | IC50 [21]: 1.33 nM
5 | – | – | – | – | – | – | – | Active | O=C(O)CC[C@H](NC(=O)N[C@@H](CCCCNC(=O)[C@H](Cc1ccccc1)NC(=O)COc1ccc(C[C@H](NC(=O)[C@H](CCC(=O)O)NC(=O)[C@H](CCC(=O)O)NC(=O)c2ccc(I)cc2)C(=O)O)cc1)C(=O)O)C(=O)O | IC50 [21]: 3.52 nM
6 | 39 %ID | 67 %ID | 62% | 64% | Tde | Active | Not Active | – | O=C(O)CC[C@H](NC(=O)N[C@@H](CCCCNC(=O)[C@H](Cc1ccccc1)NC(=O)COc1ccc(C[C@H](NC(=O)[C@H](CCC(=O)O)NC(=O)[C@H](CCC(=O)O)NC(=O)c2ccc([125I])cc2)C(=O)O)cc1)C(=O)O)C(=O)O | Drug uptake [5]: 17.4 % ID/g; Drug uptake [7]: 17.2 % ID/g; Drug uptake [22]: 11.1 % ID/g; Drug uptake [23]: 127.8 % ID/g; Drug uptake [24]: 138.1 % ID/g; Drug uptake [25]: 136.4 % ID/g
7 | 43 %ID | 75 %ID | 37% | 47% | Tde | Active | Not Active | – | O=C(O)CC[C@H](NC(=O)N[C@@H](CCCCNC(=O)[C@H](Cc1ccccc1)NC(=O)[C@H](CCC(=O)O)NC(=O)[C@H](CCC(=O)O)NC(=O)c1ccc([125I])cc1)C(=O)O)C(=O)O | Drug uptake [5]: 23.1 % ID/g; Drug uptake [6]: 71.8 % ID/g; Drug uptake [7]: 18.5 % ID/g; Drug uptake [8]: 80.3 % ID/g; Drug uptake [22]: 17 % ID/g; Drug uptake [26]: 6.91 % ID/g; Drug uptake [15]: 7.18 % ID/g; Drug uptake [16]: 3.64 % ID/g; Drug uptake [17]: 0.17 % ID/g
8 | 31 %ID | 60 %ID | 73% | 76% | Tde | Not Active | Not Active | – | O=C(O)CC[C@H](NC(=O)N[C@@H](CCCCNC(=O)[C@H](Cc1ccccc1)NC(=O)COc1ccc(C[C@H](NC(=O)Nc2ccc([125I])cc2)C(=O)O)cc1)C(=O)O)C(=O)O | Drug uptake [18]: 50.6 % ID/g; Drug uptake [20]: 51.4 % ID/g; Drug uptake [27]: 49.7 % ID/g

More lines, now with the values behind:

Row | SMILES | Drug uptake [1] | Drug uptake [2] | Drug uptake [3] | Drug uptake [4] | Drug uptake [11] | Drug uptake [12] | Drug uptake [13] | inhibition [14] | also measured
9 | O=C(O)CC[C@H](NC(=O)N[C@@H](CCCCNC(=O)Nc1ccc([125I])cc1)C(=O)O)C(=O)O | 40 %ID | 53 %ID | 38% | 47% | Tde | Active | Not Active | – | Drug uptake [15]: 10.2 % ID/g; Drug uptake [16]: 6.45 % ID/g; Drug uptake [17]: 0.71 % ID/g
10 | O=C(O)CC[C@H](NC(=O)N[C@@H](CCCCNC(=O)[C@H](Cc1ccccc1)NC(=O)[C@H](CCC(=O)O)NC(=O)[C@H](CCC(=O)O)NC(=O)c1ccc(I)cc1)C(=O)O)C(=O)O | – | – | – | – | – | – | – | Active | –
11 | O=C(O)CC[C@H](NC(=O)N[C@@H](CCCCNC(=O)[C@H](Cc1ccccc1)NC(=O)[C@H](CCC(=O)O)NC(=O)c1ccc([125I])cc1)C(=O)O)C(=O)O | 43 %ID | 76 %ID | 36% | 45% | Tde | Active | Not Active | – | Drug uptake [5]: 5.17 % ID/g; Drug uptake [6]: 41.4 % ID/g; Drug uptake [7]: 10.7 % ID/g; Drug uptake [8]: 25.4 % ID/g
12 | O=C(O)CC[C@H](NC(=O)N[C@@H](CCCCNC(=O)[C@H](Cc1ccccc1)NC(=O)COc1ccc(C[C@H](NC(=O)Nc2ccc(I)cc2)C(=O)O)cc1)C(=O)O)C(=O)O | – | – | – | – | – | – | – | Active | IC50 [21]: 13 nM
13 | O=C(O)CC[C@H](NC(=O)N[C@@H](CCCCNC(=O)[C@H](Cc1ccccc1)NC(=O)[C@H](CCC(=O)O)NC(=O)c1ccc(I)cc1)C(=O)O)C(=O)O | – | – | – | – | – | – | – | Active | –
14 | O=C(O)CC[C@H](NC(=O)N[C@@H](CCCCNC(=O)Nc1ccc(I)cc1)C(=O)O)C(=O)O [MIP-1095] | – | – | – | – | – | – | – | – | IC50 [21]: 3 nM
